Data as given in ChEMBL document CHEMBL1139682, “Synthesis and biological evaluation of technetium-99m-labeled deoxyglucose derivatives as imaging agents for tumor” (Bioorg Med Chem Lett, 2006).

Columns and labels:
[1] = Ratio of uptake in tumor to muscle of TA2 mouse bearing MA891 xenograft after 30 mins; assay type: ADME; conditions: in vivo, 0.5 h
[2] = Biodistribution in heart of TA2 mouse bearing MA891 xenograft after 2 hrs; assay type: ADME, organism-based; conditions: read-out: Drug uptake
[3] = Biodistribution in muscle of TA2 mouse bearing MA891 xenograft after 2 hrs; assay type: ADME, organism-based, Muscle tissue; conditions: read-out: Drug uptake
[4] = Biodistribution in muscle of TA2 mouse bearing MA891 xenograft after 30 mins; assay type: ADME, organism-based, Muscle tissue; conditions: read-out: Drug uptake
[5] = Biodistribution in muscle of TA2 mouse bearing MA891 xenograft after 4 hrs; assay type: ADME, organism-based, Muscle tissue; conditions: read-out: Drug uptake
[6] = Biodistribution in stomach of TA2 mouse bearing MA891 xenograft after 4 hrs; assay type: ADME, organism-based; conditions: read-out: Drug uptake
[7] = Biodistribution in spleen of TA2 mouse bearing MA891 xenograft after 4 hrs; assay type: ADME, organism-based; conditions: read-out: Drug uptake
[8] = Ratio of uptake in tumor to […] of TA2 mouse bearing MA891 xenograft after 30 mins; assay type: ADME; conditions: in vivo, 0.5 h
[9] = Biodistribution in intestine of TA2 mouse bearing MA891 xenograft after 2 hrs; assay type: ADME, organism-based; conditions: read-out: Drug uptake
[10] = Biodistribution in blood of TA2 mouse bearing MA891 xenograft after 30 mins; assay type: ADME, organism-based; conditions: read-out: Drug uptake
[11] = Biodistribution in heart of TA2 mouse bearing MA891 xenograft after 4 hrs; assay type: ADME, organism-based; conditions: read-out: Drug uptake
[12] = Biodistribution in lung of TA2 mouse bearing MA891 xenograft after 30 mins; assay type: ADME, organism-based; conditions: read-out: Drug uptake
[13] = Biodistribution in kidney of TA2 mouse bearing MA891 xenograft after 2 hrs; assay type: ADME, organism-based; conditions: read-out: Drug uptake
[14] = Biodistribution in stomach of TA2 mouse bearing MA891 xenograft after 30 mins; assay type: ADME, organism-based; conditions: read-out: Drug uptake
[15] = Ratio of uptake in tumor to blood of TA2 mouse bearing MA891 xenograft after 2 hrs; assay type: ADME
[16] = Biodistribution in tumor of TA2 mouse bearing MA891 xenograft after 2 hrs; assay type: ADME, organism-based; conditions: read-out: Drug uptake
[17] = Biodistribution in intestine of TA2 mouse bearing MA891 xenograft after 4 hrs; assay type: ADME, organism-based; conditions: read-out: Drug uptake
[18] = Partition coefficient, log P of the compound; assay type: physicochemical; conditions: octanol/water
[19] = Biodistribution in stomach of TA2 mouse bearing MA891 xenograft after 2 hrs; assay type: ADME, organism-based; conditions: read-out: Drug uptake
[20] = Biodistribution in liver of TA2 mouse bearing MA891 xenograft after 30 mins; assay type: ADME, organism-based; conditions: read-out: Drug uptake
[21] = Biodistribution in brain of TA2 mouse bearing MA891 xenograft after 4 hrs; assay type: ADME, organism-based; conditions: read-out: Drug uptake
[22] = Biodistribution in kidney of TA2 mouse bearing MA891 xenograft after 30 mins; assay type: ADME, organism-based; conditions: read-out: Drug uptake
[23] = Biodistribution in spleen of TA2 mouse bearing MA891 xenograft after 30 mins; assay type: ADME, organism-based; conditions: read-out: Drug uptake
[24] = Biodistribution in brain of TA2 mouse bearing MA891 xenograft after 30 mins; assay type: ADME, organism-based; conditions: read-out: Drug uptake
[25] = Ratio of uptake in tumor to muscle of TA2 mouse bearing MA891 xenograft after 4 hrs; assay type: ADME; conditions: in vivo
[26] = Biodistribution in brain of TA2 mouse bearing MA891 xenograft after 2 hrs; assay type: ADME, organism-based; conditions: read-out: Drug uptake
[27] = Biodistribution in blood of TA2 mouse bearing MA891 xenograft after 2 hrs; assay type: ADME, organism-based; conditions: read-out: Drug uptake
[28] = Biodistribution in liver of TA2 mouse bearing MA891 xenograft after 2 hrs; assay type: ADME, organism-based; conditions: read-out: Drug uptake
[29] = Biodistribution in lung of TA2 mouse bearing MA891 xenograft after 2 hrs; assay type: ADME, organism-based; conditions: read-out: Drug uptake
[30] = Biodistribution in liver of TA2 mouse bearing MA891 xenograft after 4 hrs; assay type: ADME, organism-based; conditions: read-out: Drug uptake
[31] = Ratio of uptake in tumor to […] of TA2 mouse bearing MA891 xenograft after 4 hrs; assay type: ADME; conditions: in vivo
[32] = Biodistribution in intestine of TA2 mouse bearing MA891 xenograft after 30 mins; assay type: ADME, organism-based; conditions: read-out: Drug uptake
[33] = Biodistribution in spleen of TA2 mouse bearing MA891 xenograft after 2 hrs; assay type: ADME, organism-based; conditions: read-out: Drug uptake
[34] = Biodistribution in blood of TA2 mouse bearing MA891 xenograft after 4 hrs; assay type: ADME, organism-based; conditions: read-out: Drug uptake
[35] = Biodistribution in heart of TA2 mouse bearing MA891 xenograft after 30 mins; assay type: ADME, organism-based; conditions: read-out: Drug uptake
[36] = Biodistribution in kidney of TA2 mouse bearing MA891 xenograft after 4 hrs; assay type: ADME, organism-based; conditions: read-out: Drug uptake
[37] = Biodistribution in tumor of TA2 mouse bearing MA891 xenograft after 4 hrs; assay type: ADME, organism-based; conditions: read-out: Drug uptake
[38] = Biodistribution in lung of TA2 mouse bearing MA891 xenograft after 4 hrs; assay type: ADME, organism-based; conditions: read-out: Drug uptake
[39] = Biodistribution in tumor of TA2 mouse bearing MA891 xenograft after 30 mins; assay type: ADME, organism-based; conditions: read-out: Drug uptake
[40] = Ratio of uptake in tumor to muscle of TA2 mouse bearing MA891 xenograft after 2 hrs; assay type: ADME; conditions: in vivo

Ratio [1]: 3.2
tissue uptake at 2 h [2]: 0.57 %ID/g
tissue uptake at 2 h [3]: 0.45 %ID/g
tissue uptake at 0.5 h [4]: 0.51 %ID/g
tissue uptake at 4 h [5]: 0.33 %ID/g
tissue uptake at 4 h [6]: 1.41 %ID/g
tissue uptake at 4 h [7]: 1.6 %ID/g
Ratio [8]: 0.47
tissue uptake at 2 h [9]: 4.07 %ID/g
tissue uptake at 0.5 h [10]: 3.32 %ID/g
tissue uptake at 4 h [11]: 0.38 %ID/g
tissue uptake at 0.5 h [12]: 2.73 %ID/g
tissue uptake at 2 h [13]: 10.8 %ID/g
tissue uptake at 0.5 h [14]: 3.69 %ID/g
Kp at 2 h [15]: 0.59
tissue uptake at 2 h [16]: 1.25 %ID/g
tissue uptake at 4 h [17]: 1.29 %ID/g
logP [18]: -2.92
tissue uptake at 2 h [19]: 3.17 %ID/g
tissue uptake at 0.5 h [20]: 5.9 %ID/g
tissue uptake at 4 h [21]: 0.04 %ID/g
tissue uptake at 0.5 h [22]: 8.8 %ID/g
tissue uptake at 0.5 h [23]: 1.81 %ID/g
tissue uptake at 0.5 h [24]: 0.11 %ID/g
Ratio [25]: 3.29
tissue uptake at 2 h [26]: 0.07 %ID/g
tissue uptake at 2 h [27]: 2.22 %ID/g
tissue uptake at 2 h [28]: 4.75 %ID/g
tissue uptake at 2 h [29]: 1.48 %ID/g
tissue uptake at 4 h [30]: 4.18 %ID/g
Ratio [31]: 0.82
tissue uptake at 0.5 h [32]: 2.24 %ID/g
tissue uptake at 2 h [33]: 1.36 %ID/g
tissue uptake at 4 h [34]: 1.29 %ID/g
tissue uptake at 0.5 h [35]: 0.9 %ID/g
tissue uptake at 4 h [36]: 13.2 %ID/g
tissue uptake at 4 h [37]: 1.06 %ID/g
tissue uptake at 4 h [38]: 0.98 %ID/g
tissue uptake at 0.5 h [39]: 1.53 %ID/g
Ratio [40]: 2.85
Structure (SMILES): CSCC(=O)NC1[C@H](O)O[C@H](CO)[C@@H](O)[C@@H]1O (stereo not given in full)
